Results published in the supplement of paper PMC10307832.

Legend:
Assay in all cases: relative viability (nuclei count vs DMSO), 5 days (fraction); higher = more cells survive
[1] = compound: C=CCc1cccc(/C=N/NC(=O)CN2CCN(Cc3ccccc3)CC2)c1O [PAC-1] + Cc1nc(Nc2ncc(C(=O)Nc3c(C)cccc3Cl)s2)cc(N2CCN(CCO)CC2)n1 [Dasatinib] (partner 0.075 µM)
In short: (§1)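 Lung cancer cell lines were pin-tool dosed in 1536-well plates on the day after seeding, with either a lone drug or a fixed anchor-drug dose plus five library-drug doses (not always all listed) in √10 steps. Nuclei were counted on 4× images after 5 days. Relative viability is the ratio of treated-well to vehicle-well nuclei counts, with each value a median of duplicate plates.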

[2] = compound: C=CC(=O)Nc1cc(-n2c(=O)ccc3cnc4ccc(-c5ccc(NS(C)(=O)=O)cc5)cc4c32)ccc1C [BMX-IN-1] + C[C@@H](Oc1cc(-c2cnn(C3CCNCC3)c2)cnc1N)c1c(Cl)ccc(F)c1Cl [Crizotinib] (partner 1 µM)
In short: as §1

[3] = compound: C=CC(=O)Nc1cc(-n2c(=O)ccc3cnc4ccc(-c5ccc(NS(C)(=O)=O)cc5)cc4c32)ccc1C [BMX-IN-1] + CS(=O)(=O)CCNCc1ccc(-c2ccc3ncnc(Nc4ccc(OCc5cccc(F)c5)c(Cl)c4)c3c2)o1 [Lapatinib] (partner 2 µM)
In short: as §1

Cell Line | relative viability ([1]; first compound 0.02 µM) | relative viability ([1]; first compound 0.06325 µM) | relative viability ([1]; first compound 0.2 µM) | relative viability ([1]; first compound 2 µM) | relative viability ([2]; first compound 0.02 µM) | relative viability ([2]; first compound 0.2 µM) | relative viability ([2]; first compound 0.6325 µM) | relative viability ([2]; first compound 2 µM) | relative viability ([3]; first compound 0.02 µM) | relative viability ([3]; first compound 0.2 µM) | relative viability ([3]; first compound 0.6325 µM) | relative viability ([3]; first compound 2 µM)
NCI-H1623 | 0.513 | 0.556 | 0.605 | 0.533 | – | – | – | – | – | – | – | –
HOP-62 | 0.665 | 0.68 | 0.623 | 0.641 | 0.76 | 1.04 | 0.98 | 0.959 | 1.05 | 1.16 | 0.955 | 1.04
NCI-H727 | 0.334 | 0.338 | 0.368 | 0.358 | 1.15 | 1.12 | 1.01 | 0.846 | 0.841 | 1.01 | 0.887 | 0.939
ChaGo-K-1 | 0.653 | 0.647 | 0.534 | 0.619 | 1.39 | 1.07 | 1.18 | 1.17 | – | – | – | –
BEN | 0.272 | 0.366 | 0.318 | 0.327 | 1.25 | 1.05 | 0.537 | 0.901 | 0.829 | 0.891 | 0.729 | 0.724
NCI-H596 | 0.571 | 0.659 | 0.573 | 0.664 | 1.13 | 1.18 | 1.03 | 0.827 | 0.987 | 1.13 | 1.12 | 0.935
LU99A | 0.549 | 0.579 | 0.498 | 0.505 | 0.639 | 0.567 | 0.547 | 0.579 | 1.15 | 1.04 | 0.981 | 0.913
NCI-H460 | 0.524 | 0.477 | 0.464 | 0.521 | 1.57 | 1.76 | 0.906 | 1.03 | – | 1.36 | 1.75 | 1.1
HCC-44 | – | – | – | – | 0.907 | 0.834 | 0.944 | 0.889 | 1.07 | 1.28 | 1.22 | 1.11
NCI-H647 | 0.203 | 0.172 | 0.185 | 0.164 | 1.41 | 1.45 | 1.1 | 0.937 | 1.3 | 0.957 | 1.43 | 0.949
Calu-6 | – | – | – | – | 0.925 | 0.886 | 0.927 | 0.988 | 1 | 1.44 | 1.33 | 1.06
201T | 0.571 | 0.595 | 0.589 | 0.58 | 1.03 | 1.05 | 1.09 | 1.05 | 1.03 | 1.04 | 1.05 | 1.05
CAL-12T | 0.288 | 0.393 | 0.459 | 0.404 | 0.798 | 0.827 | 0.618 | 0.562 | 0.692 | 0.722 | 0.795 | 0.613
HCC-78 | 0.335 | 0.331 | 0.404 | 0.394 | 0.379 | 0.347 | 0.335 | 0.405 | 0.812 | 0.835 | 0.663 | 0.878
LK-2 | 0.259 | 0.332 | 0.241 | 0.31 | 0.232 | 0.207 | 0.252 | 0.191 | 1.1 | 1.37 | 0.68 | 0.924
NCI-H522 | 0.881 | 0.91 | 0.894 | 0.899 | – | – | – | – | – | – | – | –
NCI-H322M | 0.226 | 0.264 | 0.259 | 0.256 | 1.02 | 1.05 | 0.982 | 0.887 | 0.626 | 0.591 | 0.563 | 0.578
COR-L 105 | 0.361 | 0.365 | 0.34 | 0.412 | 0.832 | 0.892 | 0.727 | 0.583 | 0.327 | 0.33 | 0.376 | 0.371
LOU-NH91 | 0.505 | 0.551 | 0.541 | 0.599 | – | 0.764 | 0.752 | 0.731 | – | 0.792 | 0.819 | 0.819
PC-3 [JPC-3] | 1.06 | 0.986 | 0.981 | 0.975 | 1.34 | 1.03 | 1.03 | 0.99 | 0.533 | 0.466 | 0.47 | 0.476
NCI-H2228 | 0.506 | 0.505 | 0.537 | 0.501 | 0.52 | 0.354 | 0.417 | 0.495 | 1.89 | 1.09 | 1.52 | 0.929
NCI-H1650 | 0.363 | 0.305 | 0.263 | 0.361 | 1.15 | 1.11 | 1.03 | 0.918 | 0.666 | 0.941 | 0.88 | 0.77
LCLC-103H | 0.485 | 0.472 | 0.409 | 0.487 | 1.19 | 1.05 | 1.07 | 1.07 | – | – | – | –
HCC-15 | 0.631 | 0.675 | 0.606 | 0.619 | 0.991 | 0.945 | 0.953 | 0.762 | 0.933 | 0.955 | 0.985 | 0.984
UMC-11 | 0.483 | 0.484 | 0.462 | 0.437 | 0.821 | 0.579 | 0.633 | 0.578 | 1.1 | 1.1 | 1.28 | 1.1
NCI-H2087 | 0.915 | 0.848 | 0.798 | 0.78 | 0.902 | 1.02 | 1.01 | 1.03 | 1.02 | 1.29 | 1.36 | 1.06
NCI-H3122 | 0.828 | 0.811 | 0.857 | 0.764 | 0.3 | 0.27 | 0.271 | 0.3 | 1.1 | 1.08 | 0.988 | 1.05
NCI-H661 | 0.992 | 1 | 0.89 | 0.892 | – | 0.96 | 1.14 | 0.976 | 0.564 | 0.458 | 0.452 | 0.517
NCI-H1703 | – | – | – | – | 0.821 | 0.952 | 0.631 | 0.56 | 1.69 | 1.24 | 1.31 | 0.677
NCI-H2342 | 0.302 | 0.311 | 0.295 | 0.302 | – | – | – | – | – | – | – | –
